Data reported in publication PMC3392265 (PLoS ONE, 2012).

Biological target: T1, GenK (Corynebacterium glutamicum, UniProt Q8NLB7)
T1 construct: full-length, native gene in intact C. glutamicum RES167 cells; mutants expressed from pXMJ19 in RES167 delta-genK; untagged as far as told; 12 predicted transmembrane helices
Assay: inhibition of […]-gentisate uptake in RES167 cells
Type: cell-based

T1 sequence (Q8NLB7 whole entry): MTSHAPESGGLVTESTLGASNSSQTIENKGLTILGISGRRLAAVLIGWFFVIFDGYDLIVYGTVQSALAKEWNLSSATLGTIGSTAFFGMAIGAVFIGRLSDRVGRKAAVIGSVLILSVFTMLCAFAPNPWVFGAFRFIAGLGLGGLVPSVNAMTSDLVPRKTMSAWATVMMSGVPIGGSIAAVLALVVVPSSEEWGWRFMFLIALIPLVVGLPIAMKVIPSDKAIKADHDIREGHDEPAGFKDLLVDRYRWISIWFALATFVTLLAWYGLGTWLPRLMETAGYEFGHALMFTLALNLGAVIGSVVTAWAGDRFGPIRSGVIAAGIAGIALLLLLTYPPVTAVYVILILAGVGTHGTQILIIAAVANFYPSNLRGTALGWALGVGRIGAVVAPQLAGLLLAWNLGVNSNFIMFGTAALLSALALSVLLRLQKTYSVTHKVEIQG

inhibition at 800 µM [%]	Structure (SMILES)
40 to 60	O=C(O)c1ccccc1 [benzoate]
40 to 60	O=C(O)c1ccc(O)c(O)c1 [protocatechuate]
94	O=C(O)c1cccc(O)c1 [3-hydroxybenzoate]

Structure (SMILES)	inhibition at 800 µM [%]
Oc1ccccc1O [catechol]	40 to 60
